The target of one test is T1, AuroraB (Homo sapiens, UniProt Q96GD4).
T1 construct: 20 μL of AuroraB FL H is for a final volume of 41 μL; His
The experiment in a line: AuroraB Homogeneous Time Resolved Fluorescent (HTRF) kinase assay. To be noted: average; read-out: AurB_IC50_IP (uM Avg). It is filed as biochemical. The method in brief: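 Full-length His-tagged kinase phosphorylates biotinylated Histone H3 (0.1 μM final) with ATP in pH 7.5 HEPES containing MgCl, MnCl, DTT and BSA for about 90 min. EDTA-containing detection mix with SA-APC and Eu-anti-phosphoHistone H3 then equilibrated about 60 min; HTRF read with 320 nm excitation, emissions 615/655 nm.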

Another test addresses T2, AuroraA-TPX2 (Homo sapiens, UniProt O14965).
T2 construct: 20 μL of AuroraA-TPX2 KD GST for a final volume of about 41 μL; GST
T2 sequence (O14965 133-383 limits assumed): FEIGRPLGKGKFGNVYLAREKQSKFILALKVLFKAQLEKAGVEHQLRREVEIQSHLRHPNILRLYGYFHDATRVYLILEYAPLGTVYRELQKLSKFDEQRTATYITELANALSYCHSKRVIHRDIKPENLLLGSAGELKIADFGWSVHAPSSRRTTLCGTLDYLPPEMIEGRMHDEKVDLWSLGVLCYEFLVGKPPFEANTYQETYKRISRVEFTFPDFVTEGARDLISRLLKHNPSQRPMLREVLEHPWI
T2 sequence (Q9ULW0 1-43 partner limits assumed): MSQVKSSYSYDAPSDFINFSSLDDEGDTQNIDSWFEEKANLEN
Description: AuroraA-TPX2 Homogeneous Time Resolved Fluorescent (HTRF) kinase assay. It is filed as biochemical. To be noted: average; read-out: AurA_IC50_IP (uM Avg). The method in brief: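 HTRF read-out (Eu 615 nm to APC 655 nm) of phosphorylated biotin-PLK, detected with 0.02 nM europium anti-phosphoPLK antibody and 0.0005 mg/mL SA-APC after overnight equilibration.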
A general note: TR-FRET usually uses a lanthanide donor and a delayed reading to cut background.

Results on 22 molecules are retold here after patent US8557816B2, “Aurora kinase modulators and method of use” (Amgen Inc., priority 2007, dated 2013).

T1 sequence (Q96GD4 whole entry): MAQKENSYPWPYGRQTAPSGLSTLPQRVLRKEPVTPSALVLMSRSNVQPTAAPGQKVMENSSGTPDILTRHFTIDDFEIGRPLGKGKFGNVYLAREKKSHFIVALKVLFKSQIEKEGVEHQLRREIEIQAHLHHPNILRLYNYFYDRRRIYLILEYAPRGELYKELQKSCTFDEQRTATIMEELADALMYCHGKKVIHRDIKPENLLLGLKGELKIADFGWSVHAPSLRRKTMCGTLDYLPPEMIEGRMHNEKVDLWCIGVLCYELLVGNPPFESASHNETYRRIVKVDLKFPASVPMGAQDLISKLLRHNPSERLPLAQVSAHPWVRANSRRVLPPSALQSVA

For `Cc1ccc(-c2nnc(Nc3ccc(Oc4ccnc5ccsc45)cc3)c3ccccc23)cc1` [compound 252, 4-(4-methylphenyl)-N-(4-(thieno[3,2-b]pyridin-7-yloxy)phenyl)-1-phthalazinamine], the results for the IC50 on AuroraB and at AuroraA-TPX2 were 0.005 µM and 0.077 µM, respectively.

Turning to `COc1cnc2c(Oc3ccc(Nc4nnc(-c5ccc(Cl)cc5OC)c5ccccc45)cc3)ccnc2c1` [compound 253, 4-(4-chloro-2-(methyloxy)phenyl)-N-(4-((7-(methyloxy)-1,5-naphthyridin-4-yl)oxy)phenyl)-1-phthalazinamine], the IC50 stood at 0.009 µM on AuroraB and 0.173 µM on AuroraA-TPX2.

On to `COc1cc2nncc(Oc3ccc(Nc4nnc(-c5ccccc5)c5ccccc45)cc3)c2cc1OC` [compound 254, N-(4-((6,7-bis(methyloxy)-4-cinnolinyl)oxy)phenyl)-4-phenyl-1-phthalazinamine], for which the IC50 is 0.253 µM at AuroraB and 1.64 µM on AuroraA-TPX2.

Consider `CCc1cc(-c2ccc(Cl)cc2)nnc1Nc1ccc(Oc2ccnc3cc(OC)cnc23)cc1` [compound 256, 6-(4-chlorophenyl)-4-ethyl-N-(4-((7-(methyloxy)-1,5-naphthyridin-4-yl)oxy)phenyl)-3-pyridazinamine], for which the IC50 at AuroraB is 0.003 µM; on AuroraA-TPX2, 0.012 µM.

As to `c1ccc(-c2nnc(Nc3ccc(Oc4ncnc5nc[nH]c45)cc3)c3ccccc23)cc1` [compound 257, 4-phenyl-N-(4-(7H-purin-6-yloxy)phenyl)-1-phthalazinamine], the IC50 is 0.129 µM at AuroraB and 0.868 µM on AuroraA-TPX2.

In the case of `COc1cnc2c(Oc3ccc(Nc4nnc(-c5cccc(N(C)C)c5)c5ccccc45)cc3)ccnc2c1` [compound 258, 4-(3-(dimethylamino)phenyl)-N-(4-((7-(methyloxy)-1,5-naphthyridin-4-yl)oxy)phenyl)-1-phthalazinamine], the results for the IC50 at AuroraB and at AuroraA-TPX2 were 0.002 µM and 0.005 µM, respectively.

Regarding `O=C(c1cc2nccc(Oc3ccc(Nc4nnc(-c5ccc(Cl)cc5)c5ccccc45)cc3)c2s1)N1CCOCC1` [compound 259, 4-(4-chlorophenyl)-N-(4-((2-(4-morpholinylcarbonyl)thieno-[3,2-b]pyridin-7-yl)oxy)phenyl)-1-phthalazinamine], the IC50 worked out at 0.006 µM at AuroraB and 0.023 µM on AuroraA-TPX2.

In the case of `COc1cnc2c(Oc3ccc(Nc4nnc(-c5cc(C)c(C)s5)c5ccccc45)cc3)ccnc2c1` [compound 260, 4-(4,5-dimethyl-2-thienyl)-N-(4-((7-(methyloxy)-1,5-naphthyridin-4-yl)oxy)phenyl)-1-phthalazinamine], the values for the IC50 on AuroraB and on AuroraA-TPX2 were 0.009 µM and 0.008 µM, respectively.

For the molecule `COc1cnc2c(Oc3ccc(Nc4nnc(-c5c(C)nn(C)c5C)c5ccccc45)cc3)ccnc2c1` [compound 261, N-(4-((7-(methyloxy)-1,5-naphthyridin-4-yl)oxy)phenyl)-4-(1,3,5-trimethyl-1H-pyrazol-4-yl)-1-phthalazinamine], the IC50 on AuroraB was determined as 0.156 µM; at AuroraA-TPX2, 1.61 µM.

Regarding `COc1cnc2c(Oc3ccc(Nc4nnc(-c5ccc([S+](C)[O-])cc5)c5ccccc45)cc3)ccnc2c1` (centres unmarked) [compound 262, N-(4-((7-(methyloxy)-1,5-naphthyridin-4-yl)oxy)phenyl)-4-(4-(methylsulfinyl)phenyl)-1-phthalazinamine], the IC50 was found to be 0.006 µM on AuroraB and 0.102 µM on AuroraA-TPX2.

As for `COc1cnc2c(Oc3ccc(Nc4nnc(-c5ccc(S(C)(=O)=O)cc5)c5ccccc45)cc3)ccnc2c1` [compound 263, N-(4-((7-(methyloxy)-1,5-naphthyridin-4-yl)oxy)phenyl)-4-(4-(methylsulfonyl)phenyl)-1-phthalazinamine], the IC50 stood at 0.002 µM on AuroraB and 0.036 µM at AuroraA-TPX2.

Consider `c1ccc(-c2nnc(Nc3ccc(Oc4ccnc5ccc(N6CCOCC6)cc45)cc3)c3ccccc23)cc1` [compound 264, N-(4-((6-(4-morpholinyl)-4-quinolinyl)oxy)phenyl)-4-phenyl-1-phthalazinamine], for which the IC50 on AuroraB is 0.016 µM; at AuroraA-TPX2, 0.139 µM.

Turning to `N#Cc1cnc2c(Oc3ccc(Nc4nnc(-c5ccc(Cl)cc5)c5ccccc45)cc3)ccnc2c1` [compound 265, 8-((4-((4-(4-chlorophenyl)-1-phthalazinyl)amino)phenyl)oxy)-1,5-naphthyridine-3-carbonitrile], the IC50 on AuroraB is 0.009 µM; at AuroraA-TPX2 it was 0.113 µM.

Consider `Clc1ccc(-c2nnc(Nc3ccc(Oc4ncnc5[nH]cnc45)cc3)c3ccccc23)cc1` [compound 266, 4-(4-chlorophenyl)-N-(4-(9H-purin-6-yloxy)phenyl)-1-phthalazinamine], for which the IC50 on AuroraB is 0.045 µM; on AuroraA-TPX2, 0.679 µM.

As to `COc1cnc2c(Oc3ccc(Nc4nnc(-c5ccc(C)nc5)c5ccccc45)cc3)ccnc2c1` [compound 268, N-(4-((7-(methyloxy)-1,5-naphthyridin-4-yl)oxy)phenyl)-4-(6-methyl-3-pyridinyl)-1-phthalazinamine], the IC50 at AuroraB is 0.003 µM; on AuroraA-TPX2, 0.064 µM.

Turning to `COc1ccc2nccc(Oc3ccc(Nc4nnc(-c5cc(C)cs5)c5ccccc45)cc3)c2c1` [compound 269, N-(4-((6-(methyloxy)-4-quinolinyl)oxy)phenyl)-4-(4-methyl-2-thienyl)-1-phthalazinamine], the IC50 turned out to be 0.006 µM on AuroraB and 0.049 µM at AuroraA-TPX2.

Take `CCN(CC)C(=O)c1cc2nccc(Oc3ccc(Nc4nnc(-c5ccc(Cl)cc5)c5ccccc45)cc3)c2s1` [compound 270, 7-((4-((4-(4-chlorophenyl)-1-phthalazinyl)amino)phenyl)oxy)-N,N-diethylthieno[3,2-b]pyridine-2-carboxamide]: the IC50 was determined as 0.01 µM at AuroraB and 0.084 µM at AuroraA-TPX2.

In the case of `COc1cnc2c(Sc3ccc(Nc4nnc(-c5cc(C)cs5)c5ccccc45)cc3)ccnc2c1` [compound 271, N-(4-(7-methoxy-1,5-naphthyridin-4-ylthio)phenyl)-4-(4-methylthiophen-2-yl)phthalazin-1-amine], the IC50 stood at 0.024 µM at AuroraB and 0.066 µM on AuroraA-TPX2.

Consider `c1ccc2c(-c3ccc4c(c3)CCO4)nnc(Nc3ccc(Oc4ccnc5ccsc45)cc3)c2c1` [compound 272, 4-(2,3-dihydrobenzofuran-5-yl)-N-(4-(thieno[3,2-b]pyridin-7-yloxy)phenyl)phthalazin-1-amine], for which the figures for the IC50 at AuroraB and on AuroraA-TPX2 were 0.001 µM and 0.033 µM, respectively.

With `c1ccc(-c2nnc(Nc3ccc(Oc4ncnc5[nH]ccc45)cc3)c3ccccc23)cc1` [compound 273, N-(4-(7H-pyrrolo[2,3-d]pyrimidin-4-yloxy)phenyl)-4-phenylphthalazin-1-amine], the IC50 on AuroraB was 0.039 µM; on AuroraA-TPX2 it was 1.66 µM.

For `CCc1cc(-c2ccccc2)nnc1Nc1ccc(Sc2ccnc3cc(OC)cnc23)cc1` [compound 274, 4-ethyl-N-(4-(7-methoxy-1,5-naphthyridin-4-ylthio)phenyl)-6-phenylpyridazin-3-amine], the IC50 at AuroraB came to 0.004 µM; at AuroraA-TPX2, 0.066 µM.

For the molecule `CCc1cc(-c2ccc(Cl)cc2)nnc1Nc1ccc(Oc2ccnc3cc(OC)cnc23)nc1` [compound 275, 6-(4-chlorophenyl)-4-ethyl-N-(6-(7-methoxy-1,5-naphthyridin-4-yloxy)pyridin-3-yl)pyridazin-3-amine], the IC50 was found to be 0.011 µM at AuroraB and 0.156 µM on AuroraA-TPX2.
